Data reported in patent US20230181503A1, “FEED ADDITIVE” (LUCTA, S.A., priority 2020, published 2023).

Tested on: IPEC-J2 cells (pig enterocytes)
Experiment: Trans-epithelial electrical resistance (TEER) of IPEC-J2 monolayer
Assay type: cell-based
Settings: formulations 50 μg/mL, genistein 50 μM
Method: Formulation C with HT:MA:OA at weight ratio 11:50:23 (50 μg/mL) and formulation D with HT:MA:OA at weight ratio 12:50:15 (50 μg/mL) were also tested on a cell line of pig enterocytes (IPEC-J2), at different conditions. IPEC-J2 cells were seeded into a permeable transwells membrane insert (6.5 mm diameter, 0.4 μm pore size, 0.33 cm2, polyester, Costar) at 1×10^5 cells/cm^2 to form a confluent monolayer within 4 days. Medium was replaced 48 h post-seeded and products were added on the apical side. On day 3 post-seeded, cells were treated with LPS (50 ng/mL) on the apical side and 24 h post-LPS stimulation epithelial cell integrity was assessed through the measurement of trans-epithelial electrical resistance (TEER) using a Millicell ERS-2 Voltohmmeter (Millipore, Billerica, Mass.). For each condition, triplicates were carried out in three independent experiments. At the end of incubation apical and basal media were eliminated and RNAlater solution (1 mL/well) was added to the cells for RNA stabilization and storage. Total RNA was extracted using RNA Mini Kit columns from Ambion (Life technologies, Carlsbad, Calif.) and stored at −80° C. for subsequent retrotranscription and quantitative RT-PCR. The extraction of total RNA was carried out using PureLink™ RNA Mini Kit according to the manufacturer's protocol. […]

## O=c1c(-c2ccc(O)cc2)coc2cc(O)cc(O)c12 [Genistein]
IPEC-J2, + LPS 50 ng/mL, 24 h post-LPS, LPS alone = 61.7
  TEER relative to DMSO control: 107%
IPEC-J2, without LPS, Control (DMSO) = 100
  TEER relative to DMSO control: 129%
